Experimental data published in PMC11284787, “Ligand-Directed Labeling of the Adenosine A1 Receptor in Living Cells” (Journal of Medicinal Chemistry, 2024).
Read-outs that look alike come from different tables or passages of the source.

Experiments:
NL-rA1AR = target: T1, NL-rA1AR (Rattus norvegicus, UniProt P25099); assay: NanoBRET saturation ligand-binding assay, NL-rA1AR
T1 construct: expressed in transfected cells
T1 sequence (P25099 1-326): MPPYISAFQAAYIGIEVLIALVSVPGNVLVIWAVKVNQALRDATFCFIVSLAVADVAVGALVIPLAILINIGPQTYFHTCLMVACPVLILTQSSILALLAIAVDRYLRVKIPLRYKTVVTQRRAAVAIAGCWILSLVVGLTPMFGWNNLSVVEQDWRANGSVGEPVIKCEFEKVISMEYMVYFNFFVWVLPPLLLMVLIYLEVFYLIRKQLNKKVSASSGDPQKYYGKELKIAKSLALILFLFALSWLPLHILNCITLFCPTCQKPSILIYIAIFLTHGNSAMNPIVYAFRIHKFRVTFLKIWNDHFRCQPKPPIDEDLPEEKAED
Method: The ligand-binding properties of the newly synthesized probes were assessed in a series of pharmacological assays. Initially, a NanoBRET[47],[48] saturation binding experiment was used to evaluate the binding affinity of ligand-directed probes functionally labeled with the SulfoCy5 fluorophore (11) to the NanoLuc(NL)-tagged[49] hA1AR expressed in HEK293T cells.
(§1) NanoBRET binding assay. All NanoBRET experiments were performed in white flat […]
(§2) 37 °C for kinetic binding experiments. Emissions were read at 420 nm (80 nm bandpass; […]
(§3) the SulfoCy5-labelled probe. […]
(§4) nm emission by the 420 nm emission. The term “raw BRET ratio” refers to the unprocessed data as no background ratio has been subtracted. In all NanoBRET binding […]
(§5) competitive antagonist selective for the adenosine receptor under investigation […]
(§6) MRS1220 for the A3AR). HEK293T cells stably/transiently expressing Nluc-AR were […]
(§7) were incubated for 1 h at 37 °C. […]
NanoBRET saturation binding assay. Total and nonspecific saturation binding curves were fit simultaneously using the following equation: […]

NL-hA2BAR [1] = target: T2, NL-hA2BAR (Homo sapiens, UniProt P29275); assay: NanoBRET saturation ligand-binding assay, NL-hA2BAR
T2 construct: expressed in transfected cells
T2 sequence (P29275 1-332): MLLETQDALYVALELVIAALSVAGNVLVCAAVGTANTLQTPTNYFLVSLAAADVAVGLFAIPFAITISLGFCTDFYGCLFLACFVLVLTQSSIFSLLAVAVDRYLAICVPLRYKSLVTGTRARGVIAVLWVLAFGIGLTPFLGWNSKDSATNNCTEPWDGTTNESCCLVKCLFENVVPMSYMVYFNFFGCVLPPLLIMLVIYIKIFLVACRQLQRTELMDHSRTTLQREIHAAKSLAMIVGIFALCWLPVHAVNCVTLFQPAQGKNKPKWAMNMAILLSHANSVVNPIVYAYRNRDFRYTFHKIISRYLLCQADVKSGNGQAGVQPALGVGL
Method: (§8) Probes 11 and 12 were further evaluated for their ability to bind the other three adenosine receptor subtypes (NL-A2AAR, NL-A2BAR, and NL-A3AR), and their ligand-binding properties were quantified in the NanoBRET saturation and inhibition binding assays, respectively (Table 1 and Figure 4).
as §1, §2, §3, §4, §5, §6, §7
(§9) NanoBRET saturation binding assay. Total and nonspecific saturation binding curves were fit simultaneously using the following equation:
(§10) BRET ratio = Bmax[B] + M(B) + C […]
(§11) Uninhibited specific binding = 100 ― 100 x [A]

NL-hA3AR = target: T3, NL-hA3AR (Homo sapiens, UniProt P0DMS8); assay: NanoBRET saturation ligand-binding assay, NL-hA3AR
T3 construct: expressed in transfected cells
T3 sequence (P0DMS8 1-318): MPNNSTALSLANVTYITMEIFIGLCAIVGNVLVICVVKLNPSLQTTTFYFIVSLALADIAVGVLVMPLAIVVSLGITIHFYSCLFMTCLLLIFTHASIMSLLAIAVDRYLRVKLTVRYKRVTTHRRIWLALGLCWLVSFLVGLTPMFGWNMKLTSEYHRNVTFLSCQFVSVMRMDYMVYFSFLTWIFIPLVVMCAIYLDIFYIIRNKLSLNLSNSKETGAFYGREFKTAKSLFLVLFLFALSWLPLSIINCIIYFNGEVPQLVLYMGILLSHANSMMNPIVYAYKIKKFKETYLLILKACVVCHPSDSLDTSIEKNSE
Method: as §8, §1, §2, §3, §4, §5, §6, §7, §9, §10, §11

NL-hA2BAR [2] = target: T2, NL-hA2BAR; assay: NanoBRET competition ligand-binding assay (CA200645 tracer), NL-hA2BAR; details: CA200645 (25 nM) tracer, HEK293T cells, mean ± SEM; read-out: affinity values pKi, NL-hA2BAR (converted)

CCCCn1c(=O)c2[nH]c(C34CCC(C(=O)NCCNC(=O)CCNC(=O)c5ccc(OC(=O)CCCCC[N+]6=C(/C=C/C=C/C=C7/N(C)c8ccc(S(=O)(=O)O)cc8C7(C)C)C(C)(C)c7cc(S(=O)(=O)[O-])ccc76)c(F)c5)(CC3)CC4)nc2n(CCCC)c1=O [Compound 11, 1-(6-(4-((3-((2-(4-(1,3-Dibutyl-2,6-dioxo-2,3,6,7-tetrahydro-1H-purin-8-yl)bicyclo[2.2.2]octane-1-carboxamido)ethyl)amino)-3-oxopropyl)carbamoyl)-2-fluorophenoxy)-6-oxohexyl)-3,3-dimethyl-2-((1E,3E)-5-((E)-1,3,3-trimethyl-5-sulfoindolin-2-ylidene)penta-1,3-dien-1-yl)-3H-indol-1-ium-5-sulfonate]
Kd (NL-rA1AR; HEK293T cells stably expressing rat NanoLuc-A1AR, mean ± SEM, read-out: affinity values pKD, NL-rA1AR (converted)): 9.12 nM
Kd (NL-rA1AR; supplementary CSV, read-out: AFFINITY (A1AR_rat) pKD (converted)): 10.2 nM
Kd (NL-hA2BAR [1]; HEK293T cells stably expressing NL-hA2BAR, read-out: affinity values pKD, NL-hA2BAR (converted)): > 1000 nM
BRET signal detected at NL-A2BAR (NL-hA2BAR [1]; concentrations tested 0–500 nM): minimal BRET signal
Kd (NL-hA3AR; HEK293T cells stably expressing NL-hA3AR, read-out: affinity values pKD, NL-hA3AR (converted)): > 1000 nM
BRET signal detected at NL-A3AR (NL-hA3AR; concentrations tested 0–500 nM): minimal BRET signal

CCCCn1c(=O)c2[nH]c(C34CCC(C(=O)NCCNC(=O)CCNC(=O)c5ccc(OC(=O)CCC(=O)NCCOCCOCCNC(=O)O[C@H]6CC/C=C/CCC6)c(F)c5)(CC3)CC4)nc2n(CCCC)c1=O [Compound 12, 4-((3-((2-(4-(1,3-Dibutyl-2,6-dioxo-2,3,6,7-tetrahydro-1H-purin-8-yl)bicyclo[2.2.2]octane-1-carboxamido)ethyl)amino)-3-oxopropyl)carbamoyl)-2-fluorophenyl (R,E)-1-(Cyclooct-4-en-1-yloxy)-1,12-dioxo-5,8-dioxa-2,11-diazapentadecan-15-oate]
Ki (NL-hA2BAR [2]): 813 nM
